Measurements as given in US20260091020A1, “TREATMENT OF ACUTE CANNABINOID OVERDOSE” (Anebulo Pharmaceuticals, Inc., priority 2022, published 2026).

Columns and labels:
[1] = test system: central nervous system effects of THC; test: THC challenge PD, 21-30 mg THC with 10 or 30 mg Compound 1, simultaneous or 1 hr delay (Examples 4 and 9); assay type: in vivo, human
Experimental: FIG. 14 depicts a randomized, double-blind, placebo controlled study. Left to right. (a) 14 Adult volunteers ages 18-45 are selected; (b) A single oral dose and 24-hour assessment is conducted for groups (1) 21 mg THC+placebo; and (2) 21 mg THC+30 mg ANEB-001 (c) 7 to 14 day follow up is conducted. Primary endpoints include inhibition of central nervous system effects of THC using (a) visual analog scale “feeling high”; (b) visual analog scale “alertness”; (c) body sway; (d) heart rate. Secondary endpoints include additional efficacy metrics, safety/tolerability, PK, and PK/PD correlations.
FIG. 15 depicts a randomized, double-blind, placebo controlled study. Left to right: (a) 11 Adult volunteers ages 18-45 are selected; (b) A single oral dose and 24-hour assessment is conducted for groups (1) 21 mg THC+placebo; and (2) 21 mg THC+10 mg ANEB-001 (c) 7 to 14 day follow up is conducted. Primary endpoints include inhibition of central nervous system effects of THC using (a) visual analog scale “feeling high”; (b) visual analog scale “alertness”; (c) body sway; (d) heart rate. Secondary endpoints include additional efficacy metrics, safety/tolerability, PK, and PK/PD correlations.
Following the general methods of Example 2, the study design was adjusted such that groups received either (a) THC (21 mg)+placebo or (b) THC (21 mg)+Compound 1 (30 mg) (FIG. 14) or either (a) THC (21 mg)+placebo or (b) THC (21 mg)+Compound 1 (10 mg) (FIG. 15). […] Summary of pharmacokinetics of THC with 30 mg ANEB-001 challenge (FIG. 18A and FIG. 18B), AUC after 5 hours (FIG. 18C), AUC last (FIG. 18D) and Cmax (FIG. 18E).
Following the general methods of Examples 1-3, the study design was adjusted such that Compound 1 was administered 1 hour after administration of THC. Groups received either (a) THC (21 mg)+Compound 1 (10 mg); (b) THC […]+Compound 1 (10 mg); (c) THC (30 mg)+Compound 1 (10 mg); or (d) THC (30 mg)+Compound 1 (10 mg). […] Endpoints were then evaluated as generally described in Example 1, and PK properties were measured as shown for the general methods of Example 2.

[2] = test system: central nervous system effects of THC; test: THC challenge PD, 10.5 mg THC + 30 mg Compound 1 (Example 3); assay type: in vivo, human; conditions: THC (10.5 mg) + Compound 1 (30 mg)
Experimental: Following the general methods of Example 1, the study design was adjusted such that groups received either (a) THC (10.5 mg)+placebo or (b) THC (10.5 mg)+Compound 1 (30 mg). Pharmacodynamic properties were then measured for Compound 1.

[3] = 30 mg THC, 10 mg ANEB-001, 1 hr Delay, p = 0.0007
[4] = 30 mg THC, 10 mg ANEB-001, 1 hr Delay, p = <0.0001
[5] = 21-30 mg THC, 10 mg ANEB-001, 1 hr Delay (pooled), p = <0.0001

CC(C)(C)NC(=O)N1CC(O[C@H](c2ccc(Cl)cc2)c2ccccc2C(F)(F)F)C1 [Compound 1, (R)—N-(tert-butyl)-3-((4-chlorophenyl)(2-(trifluoromethyl)phenyl)methoxy)azetidine-1-carboxamide]
Body Sway, Alertness and Feeling High vs. placebo ([1]; 21 mg THC + 30 mg ANEB-001): improvements in Body Sway (FIG. 16A), Alertness (FIG. 16B) and Feeling High (FIG. 16C)
VAS Feeling High log(mm) ([1]; 21 mg THC, 10 mg ANEB-001, 1 hr Delay, p = 0.0380): −0.5545 log(mm)
Body Sway (mm) ([1]; 21 mg THC, 10 mg ANEB-001, 1 hr Delay, p = 0.0406): −3%
VAS External Perception log(mm) ([1]; 21 mg THC, 10 mg ANEB-001, 1 hr Delay, p = 0.0530): Modified
Heart Rate (supine) (bpm) ([1]; 21 mg THC, 10 mg ANEB-001, 1 hr Delay, p = 0.0589): 10.3 bpm
VAS Alertness (mm) ([1]; 21 mg THC, 10 mg ANEB-001, 1 hr Delay, p = 0.4834): 4.4 mm
Responder Rate (VAS Feeling High) ([1]; 21 mg THC, 10 mg ANEB-001, 1 hr Delay, p = <0.0001): Reversed
VAS Feeling High log(mm) ([1]; 21 mg THC, 10 mg ANEB-001, Simultaneous, p = 0.0001): −0.7072 log(mm)
Responder Rate (VAS Feeling High) ([1]; 21 mg THC, 10 mg ANEB-001, Simultaneous, p = 0.0002): Reversed
VAS External Perception log(mm) ([1]; 21 mg THC, 10 mg ANEB-001, Simultaneous, p = 0.0037): Reversed
VAS Alertness (mm) ([1]; 21 mg THC, 10 mg ANEB-001, Simultaneous, p = 0.0047): 9.2 mm
Body Sway (mm) ([1]; 21 mg THC, 10 mg ANEB-001, Simultaneous, p = 0.0069): −29.3%
VAS Internal Perception log(mm) ([1]; 21 mg THC, 10 mg ANEB-001, Simultaneous, p = 0.0120): Reversed
Heart Rate (supine) (bpm) ([1]; 21 mg THC, 10 mg ANEB-001, Simultaneous, p = 0.7264): −1.1 bpm
VAS External Perception log(mm) ([1]; 21 mg THC, 30 mg ANEB-001, Simultaneous, p = 0.0010): Reversed
VAS Alertness (mm) ([1]; 21 mg THC, 30 mg ANEB-001, Simultaneous, p = 0.0013): 10.8 mm
VAS Internal Perception log(mm) ([1]; 21 mg THC, 30 mg ANEB-001, Simultaneous, p = 0.0016): Reversed
Responder Rate (VAS Feeling High) ([1]; 21 mg THC, 30 mg ANEB-001, Simultaneous, p = 0.0019): Reversed
Body Sway (mm) ([1]; 21 mg THC, 30 mg ANEB-001, Simultaneous, p = 0.0023): −30.6%
Heart Rate (supine) (bpm) ([1]; 21 mg THC, 30 mg ANEB-001, Simultaneous, p = 0.4730): −2.2 bpm
VAS Feeling High log(mm) ([1]; 21 mg THC, 30 mg ANEB-001, Simultaneous, p = <0.0001): −0.7856 log(mm)
VAS External Perception log(mm) ([1]; 21 mg THC, 10-30 mg ANEB-001, Simultaneous (pooled), p = 0.0004): Reversed
Responder Rate (VAS Feeling High) ([1]; 21 mg THC, 10-30 mg ANEB-001, Simultaneous (pooled), p = 0.0005): Reversed
VAS Alertness (mm) ([1]; 21 mg THC, 10-30 mg ANEB-001, Simultaneous (pooled), p = 0.0007): 15.6 mm
VAS Internal Perception log(mm) ([1]; 21 mg THC, 10-30 mg ANEB-001, Simultaneous (pooled), p = 0.0012): Reversed
Body Sway (mm) ([1]; 21 mg THC, 10-30 mg ANEB-001, Simultaneous (pooled), p = 0.0013): −30.0%
Heart Rate (supine) (bpm) ([1]; 21 mg THC, 10-30 mg ANEB-001, Simultaneous (pooled), p = 0.8247): 0.6 bpm
VAS Feeling High log(mm) ([1]; 21 mg THC, 10-30 mg ANEB-001, Simultaneous (pooled), p = <0.0001): −0.7364 log(mm)
THC-induced body sway ([1]; 21 mg or 30 mg THC, coadministration or Compound 1 after THC): significant reduction in body sway
VAS bad drug effect ([1]; 30 mg THC, 10 mg ANEB-001, 1 hr Delay, p = 0.0003): Reversed
VAS External Perception log(mm) [1, 3]: Reversed
VAS Internal Perception log(mm) [1, 3]: Reversed
VAS Alertness (mm) ([1]; 30 mg THC, 10 mg ANEB-001, 1 hr Delay, p = 0.0042): 10.8 mm
VAS good drug effect ([1]; 30 mg THC, 10 mg ANEB-001, 1 hr Delay, p = 0.0112): Reversed
Body Sway (mm) ([1]; 30 mg THC, 10 mg ANEB-001, 1 hr Delay, p = 0.0196): −34.8%
Heart Rate (supine) (bpm) ([1]; 30 mg THC, 10 mg ANEB-001, 1 hr Delay, p = 0.1119): 6.7 bpm
Responder Rate (VAS Feeling High) [1, 4]: Reversed
VAS Feel drug effect [1, 4]: Reversed
VAS Feeling High log(mm) [1, 4]: −0.8581 log(mm)
Responder Rate (VAS Feeling High) ([1]; 21-30 mg THC, 10 mg ANEB-001, 1 hr Delay (pooled), p = 0.0002): Reversed
VAS Feel drug effect ([1]; 21-30 mg THC, 10 mg ANEB-001, 1 hr Delay (pooled), p = 0.0003): Reversed
Body Sway (mm) ([1]; 21-30 mg THC, 10 mg ANEB-001, 1 hr Delay (pooled), p = 0.0014): −32.4%
VAS good drug effect ([1]; 21-30 mg THC, 10 mg ANEB-001, 1 hr Delay (pooled), p = 0.0021): Reversed
VAS Alertness (mm) ([1]; 21-30 mg THC, 10 mg ANEB-001, 1 hr Delay (pooled), p = 0.0024): 11.3 mm
VAS Internal Perception log(mm) ([1]; 21-30 mg THC, 10 mg ANEB-001, 1 hr Delay (pooled), p = 0.0040): Reversed
Heart Rate (supine) (bpm) ([1]; 21-30 mg THC, 10 mg ANEB-001, 1 hr Delay (pooled), p = 0.0125): −8.1 bpm
VAS bad drug effect ([1]; 21-30 mg THC, 10 mg ANEB-001, 1 hr Delay (pooled), p = 0.0274): Reversed
VAS External Perception log(mm) [1, 5]: Reversed
VAS Feeling High log(mm) [1, 5]: −0.7028 log(mm)
VAS drug effects (feeling any drug effect) ([1]; Compound 1 one hour after THC, vs THC alone): highly significant reduction in feeling any drug effect
Proportion of responders (reduction in feeling high) ([1]; THC 21 or 30 mg, 10 mg or 30 mg Compound 1, vs THC alone): highly significant increase in the proportion of responders
VAS alertness ([1]; coadministration or Compound 1 after THC, vs THC alone): significant reduction in VAS alertness
Recovery time (feeling high time course) ([1]; coadministration or Compound 1 one hour after THC): reduced recovery time by several hours
VAS feeling high ([1]; coadministration or Compound 1 one hour after THC, vs THC alone, overall p<0.0001): highly significant reduction in feeling high
All primary outcomes, pre-specified pooled analysis ([1]; combined 21 mg or 30 mg THC, 10 mg Compound 1 one hour after THC): achieved statistical significance on all primary outcomes
Key psychotropic effects of THC ([1]; single oral 10 mg Compound 1, 1 hour after THC challenge, THC doses as high as 30 mg): rapidly reversed key psychotropic effects of THC
Body sway, VAS alertness and VAS feeling high vs. placebo [2]: improvements in metrics such as body sway, VAS alertness, and VAS feeling high
